Results: patent US7863323B1, “Flavonols” (The University of Melbourne, priority 2006, dated 2011)
“Also recorded” adds a separate entry of the source. Where two headings read alike, the source gives them in different places.

Key:
[1] = Solubility of succinamic acid flavonols in 0.1 M Na2CO3 solution; type: physicochemical; conditions: for maximum concentrations attained: in 0.1 M Na2CO3 solution; for solubility in comparison with the unmodified moiety: qualitative
Description: Acetylcholine perchlorate was obtained from BDH Chemicals (Poole, Dorset, England). Phenylephrine and propranolol was purchased from Sigma-Aldrich Pty. Ltd. (Castle Hill, NSW, Australia). DiOHF was purchased from Indofine Chemical Co. Inc. (Belle Mead, N.J., U.S.A.). All other flavonols were synthesized in this study. […] was purchased from Cayman Chemical (Ann Arbor, Mich., U.S.A.). All chemicals were dissolved in distilled water, except the following. DiOHF was dissolved in 10% dimethyl sulphoxide (DMSO), 90% methanol, with subsequent dilutions in 50% methanol (10^−3 M), and distilled water (10^−4-10^−7 M). Succinamic acid-substituted flavonols were dissolved in 0.1 M Na2CO3 as a stock solution (B and C at 10^−1 and D at 10^−2 M), and further diluted in distilled water as required.

[2] = system: rat isolated thoracic aorta (endothelium-intact aortic rings), PE-induced contractions; assay: Effect of flavonols on phenylephrine-induced vasoconstriction (organ bath); type: cell-based; conditions: FIG. 1a, compared with diOHF, qualitative
Excerpt: (§1) Vascular activity can be tested in standard organ bath assays using rat isolated thoracic aorta. The synthesized flavonols were first assayed for their ability to inhibit contractions induced by phenylephrine (PE), since it has been previously shown that flavonols can act as functional antagonists of PE. Next, the efficacy of the various flavonols would be determined in a direct relaxation assay. […] It was expected that the flavonols should reduce the magnitude of PE-induced contractions in endothelium-intact aortic rings, thus reducing the maximum response (Rmax) for PE-induced contractions.
(§2) Male Sprague-Dawley rats (200-400 g) were euthanised by exposure to 80% CO2, 20% O2, and their chests opened to isolate the thoracic aortae. After the removal of superficial connective tissues, the aorta was cut into ring segments, of approximately 2-3 mm in length. The aortic rings were then mounted between two stainless steel wires, one of which was linked to an isometric force transducer connected to a chart recorder, and the other end anchored to a glass rod submerged in a standard 10 mL organ bath. The organ bath was filled with Krebs-bicarbonate solution [composition (mM): NaCl, 118.0; KCl, 4.7; KH2PO4, 1.2; MgSO4.7H2O, 1.2; glucose, 5.0; NaHCO3, 25.0; CaCl2.2H2O, 2.5]. The bath medium was maintained at 37° C., pH 7.4 and continuously aerated with 95% O2, 5% CO2.
Aortic rings were equilibrated for 1 h at a resting tension of 1 g, then were precontracted with an isotonic, high potassium physiological salt solution (KPSS) in which all of the NaCl of the normal Krebs solution was replaced with KCl (122.7 mM), so as to achieve maximal contraction. The solution was then washed out and replaced with normal Krebs solution. […]
Aortic rings were incubated with a β-adrenoceptor antagonist, propranolol (10^−5 M), and either vehicle or flavonol (10^−4-10^−5 M) for 15 min before cumulative doses of phenylephrine (10^−9-10^−4.5 M) were added to generate a concentration-response curve to phenylephrine. Contraction responses were expressed as a percentage of KPSS-induced tension.

[3] = system: rat isolated thoracic aorta (aortic rings); assay: Vasorelaxation (direct relaxation assay) in precontracted aortic rings; type: cell-based; conditions: for vasorelaxation activity in the relaxation assay: FIG. 1b, qualitative; for Emax: read-out: Rmax (%) maximum response in the relaxation assay
Excerpt: as §1, §2
Aortic rings were equilibrated for 1 h at a resting tension of 1 g, then were precontracted with an isotonic, high potassium physiological salt solution (KPSS) in which all of the NaCl of the normal Krebs solution was replaced with KCl (122.7 mM), so as to achieve maximal contraction. The solution was then washed out and replaced with normal Krebs solution. After re-equilibration, the rings were submaximally contracted with phenylephrine (PE, 10^−8-10^−7 M) and endothelial integrity was tested by a single dose of acetylcholine (Ach, 10^−5 M). Only rings that responded to Ach (≧90% relaxation) were judged endothelium intact and were used in the subsequent experiments. The aortic rings were then re-equilibrated (15 min) before the subsequent experiment.
Aortic rings were precontracted submaximally with phenylephrine (10^−8-10^−7 M) and the thromboxane mimetic, 9,11-dideoxy-9α,11α-epoxymethano-prostaglandin F2α (U46619, 10^−10-10^−9 M) to approximately 50% of KPSS-induced contraction. After stabilization of the contraction, cumulative doses of the flavonol or vehicle (10^−10-10^−4 M) were added to generate a concentration-response curve. Relaxant responses were expressed as a percentage of the precontraction tension.
The results are expressed as the mean±s.e. mean and n indicates the number of experiments (rats). Relaxation concentration-response curves for diOHF were computer fitted to a sigmoidal curve using non-linear regression (Prism version 4) to enable calculation of pEC50 of the flavonols. […] Maximum relaxation responses were compared using a one way analysis of variance (ANOVA) with post-hoc multiple comparison using Newman-Keuls test. Superoxide levels were compared using a one way analysis of variance (ANOVA) with post hoc multiple comparison using Dunnett's test.

[4] = system: superoxide (NADPH oxidase-driven) in isolated rat aortic rings; assay: Lucigenin-enhanced chemiluminescence assay of superoxide in isolated aortic rings; type: cell-based; conditions: rat aortic rings incubated with NADPH; FIG. 2; compared with diOHF; qualitative
Description: Since the vascular activity of the synthesized flavonols was attenuated, it was of great interest to test these compounds for antioxidant activity. Antioxidant activity can be assessed in a tissue-based lucigenin-enhanced chemiluminescence assay. Isolated rat aortic rings were incubated with NADPH and the various flavonols. NADPH, a substrate for NADPH oxidase in the vasculature, increases superoxide production. Superoxide that is produced reacts with lucigenin, leading to the emission of photons, which can be quantified to give a measure of superoxide levels.
Superoxide concentrations were measured in isolated aortic rings by lucigenin-enhanced chemiluminescence. Prior to assaying, the aortic rings were incubated at 37° C. for 1 h in Krebs-EPES buffer containing DETCA (3×10^−5 M), which inactivates superoxide dismutase, NADPH (10^−4 M) and either vehicle, succinamic acid-substituted flavonol (10^−4 or 10^−5 M) or diOHF (10^−4 or 10^−5 M). Assay solutions consisting of lucigenin (5×10^−6 M), NADPH (10^−4 M) and either vehicle (DMSO), succinamic acid-substituted flavonol (10^−4 or 10^−5 M) or 3′,4′-dihydroxyflavonol (diOHF, 10^−4 or 10^−5 M), as a positive control, were prepared in Krebs-HEPES buffer [composition (mM): NaCl, 99.0; KCl, 4.7; KH2PO4, 1.0; MgSO4.7H2O, 1.2; glucose, 11.0; NaHCO3, 25.0; CaCl2.2H2O, 2.5; Na-HEPES, 20.0]. 300 μL aliquots of the assay solution were placed into separate wells on a 96-well Optiplate, which was loaded into a TopCount single photon counter (Packard Bioscience) to determine the background emission (12 cycles). After background counting was completed, one aortic ring was added per well, and photon emission was counted (12 cycles). Superoxide levels were reported as a percentage of photon emission for +NADPH control. At the conclusion of the assay, the aortic rings were dried for 48 h at 80° C. for normalization of superoxide production to dry tissue weight.
The results are expressed as the mean±s.e. mean and n indicates the number of experiments (rats). […]

[5] = rat aortic rings precontracted with phenylephrine and U46619, percentage of precontraction tension, mean ± s.e. mean

Compound | maximum concentrations attained [1] | solubility in comparison with the unmodified moiety [1] | inhibition of PE-induced contractions (vascular activity) [2] | vasorelaxation activity in the relaxation assay [3] | Emax [3, 5] [%] | antioxidant activity (superoxide levels) [4] | Emax ([3]; Rattus norvegicus) [%] | EC50 ([3]; Rattus norvegicus, read-out: pEC50 (relaxation) (converted)) [µM]
O=C(O)CCC(=O)Nc1ccc2oc(-c3ccccc3)c(O)c(=O)c2c1 [B, 6-(Hydroxycarbonylethylcarbonylamino)flavonol] | 10^−1 M | improved solubility | less effective than diOHF | weak vasorelaxation activity | 47 ± 2 | moderate to good antioxidant activity | – | –
O=C(O)CCC(=O)Nc1ccc2oc(-c3ccc(O)cc3)c(O)c(=O)c2c1 [C, 4′-Hydroxy-6-(hydroxycarbonylethylcarbonylamino)flavonol] | 10^−1 M | improved solubility | less effective than diOHF | weak vasorelaxation activity | 80 ± 5 | little effect | – | –
O=C(O)CCC(=O)Nc1ccc2oc(-c3ccc(O)c(O)c3)c(O)c(=O)c2c1 [D, 3′,4′-Dihydroxy-6-(hydroxycarbonylethylcarbonylamino)flavonol] | 10^−2 M | improved solubility | less effective than diOHF; also recorded: vascular activity was completely abolished | slight contractions were observed at high concentrations | -25 ± 3 | moderate to good antioxidant activity; also recorded: superoxide levels were substantially reduced | – | –
O=c1c(O)c(-c2ccc(O)c(O)c2)oc2ccccc12 [diOHF, 3′,4′-dihydroxyflavonol, reference compound] | – | – | – | – | – | – | 105 ± 2 | 4.68
